Several values for one entry are separate records, joined by “and”; a condition that tells them apart may be missing. Equal entries are not always repeated.
Legend:
[1] = design: method as in PMID 10858319; settings: in water; cited from earlier work
wild-type CmoB [2] = molecular target: T1, wild-type CmoB (Escherichia coli, UniProt P76291); assay: Isothermal titration calorimetry, wild-type CmoB; format: binding
T1 construct: vector LIC-pET30a) (cleaved yes); made in house; host or cells: Escherichia coli BL21 (DE3)
Method: (§1) CmoB was extensively dialyzed for 24 h against binding buffer (20-mM HEPES, pH 7.5) using a dialysis cassette with 10-kDa MWCO (Pierce). Lyophilized Cx-SAM was dissolved in the binding buffer at a final concentration of 1.3 mM. SAM was purchased from Sigma and dissolved in binding buffer at a final concentration of 10 mM. Prior to use, all titration samples were centrifuged for 20 min at 4°C. Isothermal titration calorimetry (ITC) experiments were performed at 15°C using an auto-ITC200 (MicroCal, LLC, Northhampton, MA, USA) in which the reaction cell (202.8 μl) containing CmoB (50 μM and 370 μM for Cx-SAM and SAM, respectively) was titrated with 40 × 1-μl injections of 1.3-mM Cx-SAM or 6.7-mM SAM with an equilibration time of 180 s. Raw injection traces were integrated over time, normalized per mol of ligand injected and corrected for the heat of dilution obtained from the plateau of a titration curve. Titration data were analyzed using a single-site model in Origin (version X) and Igor Pro 5/6. […] Based on the chemical synthesis, the Cx-SAM utilized in the binding assay is a racemic mixture, of which only the S-isomer is capable of acting as a substrate/ligand for CmoB. Therefore, the stoichiometry was fixed at 1:1 and the activity of the ligand was introduced as a fitting parameter for Cx-SAM.

CmoB K91A mutant [3] = molecular target: T2, CmoB K91A mutant (Escherichia coli, UniProt P76291, K91A); assay: Isothermal titration calorimetry, K91A mutant CmoB; format: binding
T2 construct: vector LIC-pET30a) (cleaved yes); made in house; host or cells: Escherichia coli BL21 (DE3)
Method: as §1
The titration curve was analyzed using macroscopic binding constants and enthalpies describing binding of n-molecules of Cx-SAM to tetrameric mutant CmoB. Initially, the titration curve was analyzed with all possible values of n (=1~4). […] Therefore, the titration curve was analyzed using three sets of binding constants and enthalpies (Supplementary Table 2). The fitted values of the macroscopic binding constants were compared to those expected for a case of non-cooperative binding. For both cooperative and non-cooperative binding, K1 is given by 4Ksite where 4 accounts for the number of ligand binding sites in teterameric CmoB (i.e., statistical factor) and Ksite describes the “intrinsic” affinity of each site. Then, Ksite=3.6x10^4 M^-1. The fitted value of K2 is ~ 8.4-fold higher than that calculated for the case of non-cooperative binding (6Ksite^2=7.7x10^9 M^-2), indicating positive cooperativity involved in binding of the second Cx-SAM. Since the population of K91A with three Cx-SAMs bound is negligible, binding of the third Cx-SAM is deduced to be negatively cooperative.
A possible molecular explanation for such heterogeneous cooperativity involved in the interaction between K91A and Cx-SAM is the presence of (at least) two different types of interface between the subunits in tetrameric K91A which is consistent with the structural model of the CmoB tetramer. In this model (Supplementary Figure 9), the four ligand binding sites are initially equivalent, but binding of the first ligand to any of these four sites differentially affects (increases and decreases) the affinities of the neighboring sites for the second ligand through the different subunit interfaces. This model is a variation of the classical “square” model used in the analysis of the interaction between hemoglobin and oxygen(2) and provides a molecular description of the fitted macroscopic binding constants in terms of the intrinsic affinity (Ksite) and two types of cooperativity (ω+ and ω-): K1=4Ksite; K2=2Ksite^2(1+ω++ω-); K4=Ksite^4(ω+ω-)^2. Then, Ksite=3.6x10^4 M^-1, ω+=23.8, and ω-=0.4. The value of ω is equivalent to a fold-change in the Cx-SAM affinity of a binding site in tetrameric K91A when its neighboring site is already occupied by Cx-SAM.
^aIn this model, the interaction is described by a set of binding events where n-molecules of Cx-SAM bind tetrameric CmoB (K91A) with the corresponding binding constants (Kn) and enthalpies (∆Hn°). Initially, the titration curve was analyzed by this model including all possible values of n (=1~4). […] Therefore, the titration curve was analyzed using three sets of binding constants and enthalpies.

CmoB Y200A mutant = molecular target: T3, CmoB Y200A mutant (Escherichia coli, UniProt P76291, Y200A); assay: Isothermal titration calorimetry, Y200A mutant CmoB; format: binding
T3 construct: vector LIC-pET30a) (cleaved yes); made in house; host or cells: Escherichia coli BL21 (DE3)
Method: as §1

CmoB R315A mutant = molecular target: T4, CmoB R315A mutant (Escherichia coli, UniProt P76291, R315A); assay: Isothermal titration calorimetry, R315A mutant CmoB; format: binding
T4 construct: vector LIC-pET30a) (cleaved yes); made in house; host or cells: Escherichia coli BL21 (DE3)
Method: as §1

wild-type CmoB [4] = molecular target: T1, wild-type CmoB; assay: In vitro LC-MS-based alkyl transfer assay, wild-type CmoB; format: biochemical
Method: (§2) The assay solution for SAM-dependent mo5U formation contained 10-mM Tris-HCl (pH 8.0), 4-mM MgCl2, 0.2-mM SAM and 20–25 μg (∼20 μM) of total tRNA prepared from cmoB-mutant E. coli cells in 50 μl. Reaction conditions for Cx-SAM-dependent cmo5U formation assay were identical, with the exception that10-μM Cx-SAM was used in place of SAM. Assays were initiated by addition of 0.1–2-μM CmoB to the above mixtures and subsequently incubated at the room temperature. The reaction was terminated by the addition of 0.1-mg/ml P1 nuclease, followed by incubation at 60°C for at least 1 h. […] Hydrolyzed nucleotides were directly applied to HPLC without further processing for LC-MS analysis as described above.

CmoB K91A mutant [5] = molecular target: T2, CmoB K91A mutant; assay: In vitro LC-MS-based alkyl transfer assay, K91A CmoB; format: biochemical; settings: Cx-SAM as alkyl donor, after 24 h
Method: as §2

CmoB = molecular target: T5, CmoB (Escherichia coli, UniProt P76291); assay: Time course of SAM-dependent mo5U modification ([14CH3]-SAM), competition with Cx-SAM; format: biochemical; settings: 10-μM Cx-SAM, 140 μM [14CH3]-SAM, 90 min
T5 construct: vector LIC-pET30a) (cleaved yes); made in house; host or cells: Escherichia coli BL21 (DE3)
Method: The assay was initiated by mixing 10-mM Tris (pH 8.0), 4-mM MgCl2, 140-μM [^14CH3]-SAM (Perkin Elmer), 100 μg of total tRNA prepared from cmoB-deficient cells and 2-μM CmoB in 50 μl. In competition assays to measure the effect of Cx-SAM on methylation, 10-μM Cx-SAM was added to the above mixture. […] RNA was washed with 0.2-M ammonium acetate (pH 6.0) using an MWCO 10-kDa filter by centrifugation. This washing step was repeated two more times to remove unreacted ^14C-SAM. RNA was then spotted on a DE81 filter (GE) and air-dried for 20 min. Images of the radioactive tRNA were recorded on a phosphorimaging plate (Molecular Dynamics) for 2 days and analyzed using a Molecular Dynamics Storm 860 PhosphorImager System with ImageQuant software.

T2 sequence (P76291 whole entry K91A): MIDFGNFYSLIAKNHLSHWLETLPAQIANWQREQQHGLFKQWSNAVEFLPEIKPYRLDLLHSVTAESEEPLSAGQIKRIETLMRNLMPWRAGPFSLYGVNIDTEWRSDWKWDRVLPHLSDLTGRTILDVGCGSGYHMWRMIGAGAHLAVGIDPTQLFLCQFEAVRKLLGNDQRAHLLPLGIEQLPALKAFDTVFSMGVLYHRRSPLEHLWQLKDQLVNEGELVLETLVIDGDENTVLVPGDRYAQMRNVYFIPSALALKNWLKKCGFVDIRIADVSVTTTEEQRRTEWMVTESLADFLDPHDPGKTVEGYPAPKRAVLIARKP
T3 sequence (P76291 whole entry Y200A): as the sequence (P76291 whole entry K91A) above, with A91K, Y200A counted along it
T1 sequence (P76291 whole entry): as the sequence (P76291 whole entry K91A) above, with A91K counted along it
T4 sequence (P76291 whole entry R315A): as the sequence (P76291 whole entry K91A) above, with A91K, R315A counted along it
T5 sequence (P76291 whole entry): as the sequence (P76291 whole entry K91A) above, with A91K counted along it

Which “pKa of the hydroxyl group on the pyrimidine ring” value [1] does the source give for `O=c1[nH]c(=O)n([C@H]2C[C@H](O)[C@@H](CO)O2)cc1O` [5-hydroxy-2′-deoxyuridine] here?
Its value is 7.68.

Which results are given for `Nc1ncnc2c1ncn2[C@@H]1O[C@H](C[S+](CC[C@H](N)C(=O)[O-])CC(=O)O)[C@@H](O)[C@H]1O` (stereo partly drawn) [Cx-SAM, carboxy-S-adenosine-L-methionine]?
ΔH° (wild-type CmoB [2]; ITC): -33.1 ± 0.42 kJ/mol; Kd (wild-type CmoB [2]; ITC, 15°C, read-out: Kd): 0.4 ± 0.03 µM; K (binding constant) (wild-type CmoB [2]; ITC, 15°C, single-site model): 2.5 ± 0.2 × 10^6 M^−1 and 2.5 ± 0.2 x 10^6 M^−1; TΔS° (wild-type CmoB [2]; ITC, text): 2.3 ± 0.25 kJ/mol; ΔG° (wild-type CmoB [2]; ITC, text): -35.3 ± 0.13 kJ/mol; ΔH° (wild-type CmoB [2]; ITC, text): -33 ± 0.21 kJ/mol; ΔS° (wild-type CmoB [2]; ITC, text): 1.92 ± 0.21 cal·mol^−1·deg^−1; ΔG° (wild-type CmoB [2]; ΔG° = −RT lnK): -35.1 ± 0.42 kJ/mol; ΔS° (wild-type CmoB [2]; ΔS° = (ΔH°−ΔG°)/T): 1.9 ± 0.2 cal/mol/deg; K (binding constant) (CmoB K91A mutant [3]; ITC, 15°C, single-site model, K91A): 9.0 ± 1.8 × 10^3 M^−1 and 9.0 ± 1.8 x 10^3 M^−1; ΔH° (CmoB K91A mutant [3]; ITC, K91A): -69 ± 6.69 kJ/mol; Kd (CmoB K91A mutant [3]; K1 (macroscopic binding constant), tetrameric K91A, 1 ligand bound): 7.14 µM; Ksite (intrinsic affinity of each site) (CmoB K91A mutant [3]; K1=4Ksite, tetrameric K91A): 36000 M⁻¹; Kd (CmoB K91A mutant [3]; Kd, ITC, 15°C, K91A): 111 µM and 110 µM; ω+ (positive cooperativity factor) (CmoB K91A mutant [3]; square model, tetrameric K91A): 23.8; ω- (negative cooperativity factor) (CmoB K91A mutant [3]; square model, tetrameric K91A): 0.4; K2 (macroscopic binding constant) (CmoB K91A mutant [3]; tetrameric K91A, 2 ligands bound): 6.5 (± 1.4) x 10^10 M^-2; K4 (macroscopic binding constant) (CmoB K91A mutant [3]; tetrameric K91A, 4 ligands bound): 1.6 (± 0.5) x 10^20 M^-4; Fitted K2 relative to non-cooperative binding (CmoB K91A mutant [3]; vs 6Ksite^2): ~ 8.4 fold; Fitted K4 relative to non-cooperative binding (CmoB K91A mutant [3]; vs Ksite^4): ~ 98.5 fold; ΔG° (CmoB K91A mutant [3]; ΔG° = −RT lnK, K91A): -21.8 ± 0.42 kJ/mol; ΔS° (CmoB K91A mutant [3]; ΔS° = (ΔH°−ΔG°)/T, K91A): −39.3 ± 5.4 cal/mol/deg; Kd (CmoB Y200A mutant): 1.8 ± 0.3 µM; K (binding constant) (CmoB Y200A mutant; ITC, 15°C, single-site model, Y200A): 5.5 ± 0.8 × 10^5 M^−1 and 5.5 ± 0.8 x 10^5 M^−1; ΔH° (CmoB Y200A mutant; ITC, Y200A): -30.5 ± 0.42 kJ/mol; Specificity ratio K(Cx-SAM)/K(SAM) (CmoB Y200A mutant; Y200A): > 65; Reduction of Cx-SAM binding affinity compared to the wild type (CmoB Y200A mutant; Y200A vs wild type): 4–5 fold; ΔG° (CmoB Y200A mutant; ΔG° = −RT lnK, Y200A): -31.8 ± 0.42 kJ/mol; ΔS° (CmoB Y200A mutant; ΔS° = (ΔH°−ΔG°)/T, Y200A): 0.8 ± 0.5 cal/mol/deg; Kd (CmoB R315A mutant): 2.1 ± 0.2 µM; K (binding constant) (CmoB R315A mutant; ITC, 15°C, single-site model, R315A): 4.7 ± 0.3 × 10^5 M^−1 and 4.7 ± 0.3 x 10^5 M^−1; ΔH° (CmoB R315A mutant; ITC, R315A): -35.6 ± 0.42 kJ/mol; Reduction of Cx-SAM binding affinity compared to the wild type (CmoB R315A mutant; R315A vs wild type): 4–5 fold; ΔG° (CmoB R315A mutant; ΔG° = −RT lnK, R315A): -31.4 ± 0.42 kJ/mol; ΔS° (CmoB R315A mutant; ΔS° = (ΔH°−ΔG°)/T, R315A): −3.5 ± 0.3 cal/mol/deg; Time to detectable cmo5U formation (wild-type CmoB [4]; 0.1-μM wild-type CmoB, 10-μM Cx-SAM, tRNA from cmoB-defective cells): 9 min; Time to detected cmo5U with both donors present (wild-type CmoB [4]; 10-μM Cx-SAM and 2-mM SAM): 20 min; cmo5U formation (CmoB K91A mutant [5]): No significant cmo5U signal was detected; Effect on [14CH3]-SAM methylation of tRNA (radioactive signal) (CmoB): no detectable radioactive signal

— PMC4482062 (Nucleic Acids Research, 2015)
